Tests used:
[1] = system: MCF-7 breast cancer cell line; test: Cell viability, sulforhodamine B assay; format: cell-based; conditions: Homo sapiens, MCF7, 72 h exposure, dilutions 12.5 to 100 μM, read-out: Cytotoxicity IC50, MCF-7
Protocol: (§1) The cytotoxicity of compounds 1–12 was evaluated in vitro against different cancer cell lines: MCF-7 breast cancer, DU-145 and PC-3 human prostate cancer, and one non-tumor cell line, human colon epithelial cells CCD 841 CoN (CoN). […] Four serial dilutions (from 12.5 to 100 μM) for each sample were evaluated in triplicate.
(§2) The experimental cell cultures were obtained from the American Type Culture Collection (Rockville, MD, USA). MCF-7 cells (breast cancer cell line), PC-3 and DU-145 (prostate cancer cell lines), and human colon epithelial cells CCD 841 CoN (non-tumoral cell line) were grown in Dulbecco’s modified Eagle’s medium (DMEM) containing 10% FCS, 100 U/mL penicillin, 100 μg/mL streptomycin, and 1 mM glutamine. Cells were seeded into 96 well microtiter plates in 100 μL at a plating density of 5 × 10^3 cells/well. After 24 h incubation at 37 °C under a humidified 5% CO2 atmosphere to allow cell attachment, the cells were treated with different concentrations of drugs and incubated for 72 h under the same conditions. Stock solutions of compounds were prepared in ethanol and the final concentration of this solvent was kept constant at 1%. Control cultures received 1% ethanol alone.
(§3) The sulforhodamine B assay was used according to the method of Skehan et al.. Briefly, the cells were set up at 3 × 10^3 cells per well of a 96 200 μL well, flat-bottomed, microplate. Cells were incubated at 37 °C in a humidified 5% CO2/95% air mixture and treated with the compounds at different concentrations for 72 h. At the end of drug exposure, cells were fixed with 50% trichloroacetic acid at 4 °C. After washing with water, cells were stained with 0.1% sulforhodamine B (Sigma-Aldrich, St. Louis, MO, USA), dissolved in 1% acetic acid (50 μL/well) for 30 min, and subsequently washed with 1% acetic acid to remove unbound stain. Protein-bound stain was solubilized with 100 μL of 10 mM unbuffered Tris base, and the cell density was determined using a […] plate reader (wavelength 540 nm). Values shown are the mean ± SD of three independent experiments in triplicate. The software used to calculate the IC50 values was GraphPad (GraphPad Software, San Diego, CA, USA).

[2] = system: PC-3 prostate cancer cell line; test: Cell viability, sulforhodamine B assay; format: cell-based; conditions: Homo sapiens, 72 h exposure, dilutions 12.5 to 100 μM, read-out: Cytotoxicity IC50, PC-3
Protocol: as §1, §2, §3

[3] = Cell viability, sulforhodamine B assay; format: cell-based; conditions: human, CCD 841 CoN colon epithelial cells (non-tumoral cell line), 72 h exposure, dilutions 12.5 to 100 μM, non-tumor cell line, read-out: Cytotoxicity IC50, CoN
Protocol: as §1, §2, §3

[4] = system: DU-145 prostate cancer cell line; test: Cell viability, sulforhodamine B assay; format: cell-based; conditions: Homo sapiens, 72 h exposure, dilutions 12.5 to 100 μM, read-out: Cytotoxicity IC50, DU145
Protocol: as §1, §2, §3

[5] = system: panel of cancer cell lines; test: Cytotoxicity against a panel of cancer cell lines (summary); format: cell-based; conditions: Homo sapiens; summary statement of the conclusions
Protocol: as §1, §3

caspase-3 in MCF-7 cells = test: Caspase 3 activity assay (colorimetric, DEVD-pNA); format: cell-based, human; conditions: MCF-7, compound 50 μM; control 1% ethanol
From the text: (§4) Depletion of mitochondrial membrane potential leads to the release of apoptogenic factors, such as cytochrome c in the apoptotic cascade, and activation of caspases. Then we investigated the effects of our compounds on caspase activity. We focused on caspase-3, which is a main executor of apoptosis playing a central role in its biological processing. We analyzed the effect of treatment with the compound 1, 8 and 12 on caspase-3 activation in normal and cancer cells. […] Compound 1 increased the activity of caspase-3 by 3.4 ± 0.1, 1.4 ± 0.1 and 2.8 ± 0.1 times versus control cells in MCF-7 (black), CoN (white) and PC-3 (gray) cells, respectively. Compound 8 increased the activity of caspase 3 by 2.4 ± 0.1, 1.3 ± 0.2 and 2.7 ± 0.1 times versus control cells in MCF-7 (black), CoN (white) and PC-3 (gray) cells, respectively.
(§5) Caspase activity was measured using a colorimetric assay. Briefly, the cells exposed to compounds were collected by centrifugation at 1000 rpm and lysed with lysis buffer (1% Triton X-100, 0.32 M sucrose, 5 mM EDTA, 10 mM Tris–HCl, pH 8.0, 2 mM dithiothreitol, 1 mM PMSF, […] aprotinin, 1 mg/mL leupeptin). Thereafter, the lysates were transferred to wells in a 96-well microplate and were incubated with DEVD-pNA (final concentration 200 μM) specific for caspase-3/7, at 37 °C for 1 h. The intensity of the developed color was read at 405 nm in a microplate reader (SpectraMax, Winooski, VT, USA). The results are expressed as percentages of the control level.

caspase-3 in CoN cells = test: Caspase 3 activity assay (colorimetric, DEVD-pNA); format: cell-based, human; conditions: compound 50 μM, control 1% ethanol
From the text: as §4, §5

caspase-3 in PC-3 cells = test: Caspase 3 activity assay (colorimetric, DEVD-pNA); format: cell-based, human; conditions: PC-3, compound 50 μM; control 1% ethanol
From the text: as §4, §5

CoN cells [6] = test: Mitochondrial membrane permeability, rhodamine 123 flow cytometry; format: cell-based, human
From the text: (§6) Mitochondria play a crucial role in the apoptotic cascade by serving as a convergent center of apoptotic signals originating from both the extrinsic and intrinsic pathways. Changes induced in the mitochondrial membrane potential (MMP) have been reported previously to represent a determinant in the execution of cell death. As polygodial has been described as an inhibitor of mitochondrial ATPase and also as nonionic surfactant. This effect may be determinant in cell death, we has analyzed the effect of compounds 1, 8 and 12 on the mitochondrial membrane potential using flow cytometry with rhodamine 123 stain [24]. […] Similar differences were observed after treatments with compounds 1 and 8 at 100 μM.
(§7) Rhodamine 123, a cationic, voltage-sensitive probe that reversibly accumulates in mitochondria, was used to detect changes in transmembrane mitochondrial membrane potentials. Cells were labelled with 1 μM rhodamine 123 at 37 °C in cell medium for 60 min before terminating the experiment. Cells were detached from the plate, after washing with ice cold PBS, and the samples were analyzed by flow cytometry. Data are expressed in percentage of cells with rhodamine 123 [24].

MCF-7 cells [7] = test: as above; format: cell-based, human
From the text: as §6, §7

PC-3 cells [8] = test: as above; format: cell-based, human
From the text: as §6, §7

CoN cells [9] = test: Morphological changes, phase contrast microscope; format: cell-based, human; conditions: 50 μM compound for 24 h
Protocol: (§8) First, the appearance of morphological changes in the cells treated with 50 μM compound for 24 h was analyzed.

MCF-7 cells [10] = test: Morphological changes, phase contrast microscope; format: cell-based, human; conditions: MCF-7, 50 μM compound for 24 h
Protocol: as §8

PC-3 cells [11] = test: Morphological changes, phase contrast microscope; format: cell-based, human; conditions: PC-3, 50 μM compound for 24 h
Protocol: as §8

CoN cells [12] = test: Morphological assessment of cell apoptosis, Hoechst 33342 staining; format: cell-based, human; conditions: 24 h exposure, fluorescence microscope
Protocol: (§9) Nuclear changes in PC-3, MCF-7 and CoN cells were observed under a fluorescence microscope (200×, Figure 4).
(§10) Briefly, on 24-well chamber slides, 1 × 10^4 cells/mL were cultured and exposed to compounds for 24 h. The control group was also exposed to 1% ethanol. The cells were washed twice with phosphate buffer solution, fixed with 3.7% formaldehyde, and washed again with phosphate buffer solution. Following the addition of 1 μM Hoechst 33342 (Sigma-Aldrich, Santiago, Chile), they were reacted in a dark room at room temperature for 30 min. After washing, they were examined under an immunofluorescence microscope (IX 81 model inverted microscope, Olympus, Santiago, Chile).

MCF-7 cells [13] = test: as above; format: cell-based, human; conditions: MCF-7, 24 h exposure, fluorescence microscope
Protocol: as §9, §10

PC-3 cells [14] = test: as above; format: cell-based, human; conditions: PC-3, 24 h exposure, fluorescence microscope
Protocol: as §9, §10

[15] = system: Salmonella strains TA 98, TA 2637, and TA 100; conditions: at highest non-toxic concentration; cited from earlier work
[16] = compound 50 µM, control treated cells assigned 100%
[17] = compound 100 µM, control treated cells assigned 100%
[18] = MCF-7, compound 50 µM, control treated cells assigned 100%
[19] = MCF-7, compound 100 µM, control treated cells assigned 100%
[20] = PC-3, compound 100 µM, control treated cells assigned 100%

SMILES | IC50 [1] | IC50 [2] | IC50 at 72 h [3] | IC50 [4] | IC50 [5] | other results
CC1(C)CCC[C@]2(C)C3=C(CC[C@@H]12)C(=O)OC3 [Compound 4, confertifolin] | > 200 µM | > 200 µM | > 200 µM | > 200 µM |  | 
CC1(C)CCC[C@]2(C)C3=C(CC[C@@H]12)COC3=O [Compound 5, isodrimenin] | > 200 µM | 87.6 ± 9.2 µM | > 200 µM | 90.5 ± 8.2 µM | < 200 µM | 
CC1(C)CCCC2(C)C1CC(=O)C1(C)OC12 (stereo not drawn) [Compound 12, 8α,9α-epoxi-11-nordriman-7-one] | 88.4 ± 7.1 µM | 90.2 ± 8.8 µM | > 200 µM | > 200 µM | < 200 µM | increase of caspase-3 activity (caspase-3 in MCF-7 cells): did not change; increase of caspase-3 activity (caspase-3 in CoN cells): did not change; increase of caspase-3 activity (caspase-3 in PC-3 cells): did not change; percentage of rhodamine 123 stained cells (CoN cells [6]; [16]): 102.6 ± 9.1%; percentage of rhodamine 123 stained cells (CoN cells [6]; [17]): 124.9 ± 9.7%; percentage of rhodamine 123 stained cells (MCF-7 cells [7]; [18]): 111.4 ± 8.9%; percentage of rhodamine 123 stained cells (MCF-7 cells [7]; [19]): 111.3 ± 9.8%; percentage of rhodamine 123 stained cells (PC-3 cells [8]; PC-3, compound 50 µM, control treated cells assigned 100%): 139.1 ± 12.4%; percentage of rhodamine 123 stained cells (PC-3 cells [8]; [20]): 149.3 ± 21.3%; morphological changes of cells (CoN cells [9]): severely distorted; morphological changes of cells (MCF-7 cells [10]): severely distorted; morphological changes of cells (PC-3 cells [11]): severely distorted
CC1=CC[C@H]2C(C)(C)CCC[C@]2(C)[C@H]1CO [Compound 3, drimenol] | > 200 µM | > 200 µM | > 200 µM | > 200 µM |  | 
CC1(C)CCC[C@]2(C)[C@H](CO)C(CO)=CC[C@@H]12 [Compound 6, 9α-drimendiol] | > 200 µM | > 200 µM | > 200 µM | > 200 µM |  | 
N#CC(C#N)=NNc1ccc(OC(F)(F)F)cc1 [FCCP, reference compound] |  |  |  |  |  | percentage of rhodamine 123 stained cells (CoN cells [6]; positive control FCCP 10 μM): 6.8 ± 1.3 %; percentage of rhodamine 123 stained cells (MCF-7 cells [7]; MCF-7, positive control FCCP 10 μM): 7.4 ± 0.4 %; percentage of rhodamine 123 stained cells (PC-3 cells [8]; PC-3, positive control FCCP 10 μM): 5.2 ± 0.4 %
CC(=O)O[C@H]1C[C@H]2C(C)(C)CCC[C@]2(C)C=C1C [Compound 10] | > 200 µM | > 200 µM | > 200 µM | > 200 µM |  | 
CC1(C)CCC[C@]2(C)[C@@H](CO)C(CO)=CC[C@@H]12 [Compound 7, 9β-drimendiol] | > 200 µM | > 200 µM | > 200 µM | > 200 µM |  | 
CC1(C)CCC[C@]2(C)[C@@H](C3OCCO3)C(C=O)=CC[C@@H]12 [Compound 8] | 97.1 ± 7.2 µM | 65.4 ± 5.5 µM | > 200 µM | 70.6 ± 5.9 µM | < 200 µM | nuclear changes after Hoechst 33342 staining (CoN cells [12]): chromatin condensation and karyopyknosis; nuclear changes after Hoechst 33342 staining (MCF-7 cells [13]): chromatin condensation and karyopyknosis; nuclear changes after Hoechst 33342 staining (PC-3 cells [14]): chromatin condensation and karyopyknosis; increase of caspase-3 activity (caspase-3 in MCF-7 cells): 2.4 ± 0.1 times versus control cells; increase of caspase-3 activity (caspase-3 in CoN cells): 1.3 ± 0.2 times versus control cells; increase of caspase-3 activity (caspase-3 in PC-3 cells): 2.7 ± 0.1 times versus control cells; percentage of rhodamine 123 stained cells (CoN cells [6]; [16]): 96.0% ± 7.6%; percentage of rhodamine 123 stained cells (CoN cells [6]; compound 50 µM, control treated cells assigned 100%, listed as Comp. 8): 96.0 ± 7.6%; percentage of rhodamine 123 stained cells (CoN cells [6]; [17]): 52.3 ± 8.4 %; percentage of rhodamine 123 stained cells (MCF-7 cells [7]; [18]): 93.3% ± 7.1%; percentage of rhodamine 123 stained cells (MCF-7 cells [7]; MCF-7, compound 50 µM, control treated cells assigned 100%, listed as Comp. 8): 93.3 ± 7.1%; percentage of rhodamine 123 stained cells (MCF-7 cells [7]; [19]): 72.3 ± 6.4 %; percentage of rhodamine 123 stained cells (PC-3 cells [8]; PC-3, compound 50 µM, control treated cells assigned 100%, listed as Comp. 8): 136.2 ± 18.5%; percentage of rhodamine 123 stained cells (PC-3 cells [8]; [20]): 92.8 ± 10.4%; morphological changes of cells (CoN cells [9]): severely distorted; morphological changes of cells (MCF-7 cells [10]): severely distorted; morphological changes of cells (PC-3 cells [11]): severely distorted
CC1(C)CCC[C@]2(C)[C@H]3O[C@@]3(C)C(=O)C[C@@H]12 [Compound 9] | > 200 µM | 97.5 ± 10.4 µM | > 200 µM | 93.5 ± 6.7 µM | < 200 µM | 
CC(=O)O[C@H]1C[C@H]2C(C)(C)CCC[C@]2(C)[C@@H]2O[C@]12C [Compound 11, (5S,7S,8R,9S,10S)-4,4,8β,10β-tetramethyldecahydronaphtho[8,9-α]oxiren-7-yl acetate] | > 200 µM | > 200 µM | > 200 µM | > 200 µM |  | 
CC1(C)CCC[C@]2(C)[C@H](C=O)C(C=O)=CC[C@@H]12 [Compound 2, isopolygodial] | > 200 µM | > 200 µM | > 200 µM | > 200 µM |  | mutagenic activity [15]: no mutagenic activity
